Series [1] can be described thus: PK profile: plasma concentration of rhein after oral dosing with diacerein. The series is classed as in vivo. The settings on record: rat. As for the experimental part:
FIG. 1 is a PK profile, i.e. a graph of plasma concentration of rhein (mg/ml) against time (min) post-dosing with 100, 200 and 300 mg/kg diacerein.
Consequently, the dosing for the nephrotoxic nephritis experiment was based around this dose range (see below).

A further series concerns nephrotoxic nephritis. Description: rat model of nephritis (nephrotoxic nephritis): proteinuria and renal histology (crescents). The series is classed as in vivo. The settings on record: for proteinuria compared to the control: diacerein 50, 100 and oral once a day, prednisolone 2 mg/kg. As for the experimental part: Experiments were conducted, using a rat model of nephritis (nephrotoxic nephritis) (Karkar et al, Kidney International, 1997). This is an aggressive immune driven model which parallels clinical conditions such as lupus nephritis, glomerulonephritis, IgA nephropathy and other immune-mediated nephritic diseases.
[…] Development of nephrotoxic nephritis was measured by the degree of proteinuria (in the control group) at days 6 and 10, post-disease initiation and by renal histology at day 10, quantified by the number of damaged nephrons (crescents) per histology section. These end-points were used to determine the success of the diacerein treatment. Alongside diacerein treatment, a negative control (drug vehicle only) and positive control (2 mg/kg prednisolone) were tested.

The subject of series [2] is inducible nitric oxide synthase. The note with it: osteochondrocytes, IL-1b stimulated; Pelletier 1998; cited from earlier work.
The subject of another series is IL-1. The note with it: Yaron et al 1999; Moldovan 2000; cited from earlier work.
The conditions of series [3]: humans; cited from earlier work.
The test system of series [4] is MMPs 1, 3, 9 & 13 and pro-MMPs. The settings on record: Tamura et al 2001; cited from earlier work.
In the next series the test system is TIMP-1. The note with it: Tamura et al 2001; cited from earlier work.
Setting [5] is: day 6 post-disease initiation, significant at highest dose (p<0.01).
Where [6] appears, read: day 10 post-disease initiation, significant at top dose (p<0.01).

Where two headings read alike, the source gives them in different places.

On to `CC(=O)Oc1cccc2c1C(=O)c1c(OC(C)=O)cc(C(=O)O)cc1C2=O` [diacerein], for which the “oral dose required to obtain therapeutic plasma concentrations of drug” value in series [1] was 100 to 200 mg/kg; in series [3], 0.8 mg/kg. The “proteinuria compared to the control” value in the series with nephrotoxic nephritis (setting [5]) is recorded as “decreased compared to the control”; in the series with nephrotoxic nephritis (setting [6]), “dose-dependant decrease in proteinuria”. Also, the “nephron damage (crescents per histology section)” value is recorded as “decrease in nephron damage” in the series with nephrotoxic nephritis (day 10 histology, 50 mg/kg diacerein); “decrease in nephron damage” with nephrotoxic nephritis (day 10 histology, 100 mg/kg diacerein, significant (p<0.05)); “slight increase again” in the series on nephrotoxic nephritis (day 10 histology, 200 mg/kg diacerein). Further, in the series with nephrotoxic nephritis (overall summary of the study), the “effect on both proteinuria and renal damage associated with nephrotoxic nephritis” value is on record as “significant effect”. Besides, in series [2], the “production of inducible nitric oxide synthase and production of nitric oxide” value is on record as “reduce the production”. Also, the “production of the pro-inflammatory cytokine IL-1” value in the series with IL-1 is on record as “reduce the production”.

For `C[C@]12C=CC(=O)C=C1CC[C@@H]1[C@@H]2[C@@H](O)C[C@@]2(C)[C@H]1CC[C@]2(O)C(=O)CO` [prednisolone], the “proteinuria compared to the control” value in the series on nephrotoxic nephritis (setting [5]) was “markedly reduced proteinuria”; with nephrotoxic nephritis (setting [6]), “unexpected rebound above the control proteinuria levels”. For the same compound, in the series with nephrotoxic nephritis (day 10 histology, 2 mg/kg prednisolone), the “effect on renal damage (histology)” value was “negligible”.

`O=C(O)c1cc(O)c2c(c1)C(=O)c1cccc(O)c1C2=O` [rhein]: the “production of key matrix metalloproteinases MMPs 1, 3, 9 & 13 and pro-MMPs” value in series [4] is recorded as “down-regulates the production”. Further, in the series with TIMP-1, the “production of tissue inhibitor of matrix MMP-1, TIMP-1” value is on record as “increases the production”. The “production of inducible nitric oxide synthase and production of nitric oxide” value in series [2] is “reduce the production”. In addition, the “production of the pro-inflammatory cytokine IL-1” value in the series on IL-1 is “reduce the production”.

Values taken from US20040248864A1, “Use of anthroquinones in the treatment of kidney disease” (priority 2001, published 2004).
